These results are taken from patent US6719958B1, “Polychelants, their complexes with metal ions, their preparation and their uses” (Dibra S.p.A., priority 1996, dated 2004).

The nature of data set [1]: Relaxivity measurement (Bruker Minispec 120, 0.5 T, 39° C.). Type of data set: physicochemical. To be noted: on a per gadolinium basis. How it is done: For some Gd-containing products the relaxivity r1 was measured using a Bruker Minispec 120, at 0.5 T and 39° C.
The conditions of data set [2]: according to the literature (Lauffer R. B. (1990) Magn. Reson. Quart. 2, 65-84); cited from earlier work.

Regarding “Gadolinium Complex of N^□,N^□,N^ε,N^ε-Tetrakis-[4-aza-5-oxo-6-(1,4,7,10-tetraazacyclododecyl-4,7,10-triacetate)hexyl]-L-lysine [Example 5]”, the “Relaxivity r1” value in data set [1] (0.5 T and 39° C.) came to 8.35 s⁻¹ mM⁻¹. For `O=C(O)CN1CCN(CC(=O)O)CCN(CC(=O)NCCCN(CCCC[C@H](NC(=O)OCc2ccccc2)C(=O)O)CCCNC(=O)CN2CCN(CC(=O)O)CCN(CC(=O)O)CCN(CC(=O)O)CC2)CCN(CC(=O)O)CC1` [Example 6, N^α-Carbobenzyloxy-N^ε,N^ε-bis-[4-aza-5-oxo-6-(1,4,7,10-tetraazacyclododecyl-4,7,10-triacetate)hexyl]-L-lysine], in data set [1], the “Relaxivity r1” value is 8.35 s⁻¹ mM⁻¹. “Gadolinium Complex of N^□,N^ε,N^ε(a)-Tris-[4-aza-5-oxo-6-(1,4,7,10-tetraazacyclododecol-4,7,10-triacetate)hexyl]-L-lysine [Example 4]”: the “Relaxivity r1” value in data set [1] (0.5 T and 39° C.) came to 5.25 s⁻¹ mM⁻¹.

As to `O=C([O-])CN1CCN(CC(=O)[O-])CCN(CC(=O)O)CCN(CC(=O)[O-])CC1.[Gd+3]` [Gd-DOTA], the r1 value in data set [2] is 3.4 mM⁻¹ s⁻¹.

B1: Example 9: Conjugate of gadolinium complex compound (IVa) with horse heart myoglobin; Gd content 27.9 mol/mol protein (conjugate, UniProt P68082 2-154, looked up)
Myoglobin: GLSDGEWQQVLNVWGKVEADIAGHGQEVLIRLFTGHPETLEKFDKFKHLKTEAEMKASEDLKKHGTVVLTALGGILKKKGHHEAELKPLAQSHATKHKIPIKYLEFISDAIIHVLHSKHPGDFGADAQGAMTKALELFRNDIAAKYKELGFQG
modifications: gadolinium complex IVa conjugate
notes: Conjugate of gadolinium complex compound (IVa) with horse heart myoglobin; Gd content 27.9 mol/mol protein
In the case of B1, the “Relaxivity r1” value in data set [1] (0.5 T and 39° C.) was 19 s⁻¹ mM⁻¹.
